Assay results from patent publication US7291641B2, “Derivatives of heterocycles with 5 members, their preparation and their use as medicaments” (Societe de Conseils de Recherches et d'Applications …, priority 1999, dated 2007).
Where a name gives a salt, the structure may show the parent alone.

melting point [°C]	Compound
230 to 232	CC(C)(C)c1c[nH]c([C@H](N)Cc2c[nH]c3ccccc23)n1 (as salt: hydrochloride)
202 to 204	NC1(c2nc(-c3ccccc3)c[nH]2)CCCCC1 (as salt: hydrochloride)
200 to 204	CC(C)(N)c1nc(-c2ccccc2)c[nH]1 (as salt: hydrochloride)
> 260	N[C@H](Cc1c[nH]c2ccccc12)c1nc(-c2ccccc2)c(-c2ccccc2)[nH]1 (as salt: hydrochloride)
228 to 230	NCc1nc(-c2ccccc2)c[nH]1 (as salt: hydrochloride) [Example 51, (4-phenyl-1H-imidazol-2-yl)methanamine]
132 to 134	CCCCCCN[C@@H](Cc1c[nH]c2ccccc12)c1nc(-c2ccccc2)c[nH]1 (as salt: hydrochloride) [Example 53, N-[(1S)-2-(1H-indol-3-yl)-1-(4-phenyl-1H-imidazol-2-yl)ethyl]-1-hexanamine]
279 to 280	Cn1cc(-c2ccc(-c3ccccc3)cc2)nc1CN (as salt: hydrochloride) [Example 55, (4-[1,1′-biphenyl]-4-yl-1-methyl-1H-imidazol-2-yl)methanamine]
150 to 152	CC(C)C[C@H](N)c1nc(-c2ccccc2)c[nH]1 (as salt: hydrochloride) [Example 56, (1S)-3-methyl-1-(4-phenyl-1H-imidazol-2-yl)-1-butanamine]
208 to 210	N[C@H](c1nc(-c2ccccc2)c[nH]1)C1CCCCC1 (as salt: hydrochloride) [Example 80, (S)-cyclohexyl(4-phenyl-1H-imidazol-2-yl)methylamine]
180 to 182	c1[nH]c([C@@H](NC2CCCCC2)C2CCCCC2)nc1C1CCCCC1 (as salt: hydrochloride) [Example 82, N-[(S)-cyclohexyl(4-cyclohexyl-1H-imidazol-2-yl)methyl]-cyclohexanamine]
210 to 212	c1ccc(-c2c[nH]c([C@@H](NC3CCC3)C3CCCCC3)n2)cc1 (as salt: hydrochloride) [Example 83, N-[(S)-cyclohexyl(4-phenyl-1H-imidazol-2-yl)methyl]-cyclobutanamine]
248 to 250	NCc1nc(-c2ccccc2)cn1Cc1ccccc1 (as salt: hydrochloride) [Example 107, (1-benzyl-4-phenyl-1H-imidazol-2-yl)methanamine]
174 to 176	N[C@H](CCc1ccccc1)c1nc(-c2ccccc2)c[nH]1 (as salt: hydrochloride) [Example 131, (1R)-3-phenyl-1-(4-phenyl-1H-imidazol-2-yl)-1-propanamine]
196 to 198	N[C@H](CC1CCCCC1)c1nc(-c2ccccc2)c[nH]1 (as salt: hydrochloride) [Example 132, (1R)-2-cyclohexyl-1-(4-phenyl-1H-imidazol-2-yl)ethanamine]
240 to 242	NCc1nc(-c2ccc(-c3ccccc3)cc2)c[nH]1 (as salt: hydrochloride) [Example 141, (4-[1,1′-biphenyl]4-yl-1H-imidazol-2-yl)methanamine]
170 to 174	NCc1nc(-c2ccc(-c3ccccc3)cc2)cn1Cc1ccccc1 (as salt: hydrochloride) [Example 143, (1-benzyl-4-[1,1′-biphenyl]-4-yl-1H-imidazol-2-yl)methanamine]
206 to 210	Cn1cc(-c2ccccc2)nc1[C@H](N)Cc1c[nH]c2ccccc12 (as salt: hydrochloride) [Example 151, (1R)-2-(1H-indol-3-yl)-1-(1-methyl-4-phenyl-1H-imidazol-2-yl)ethanamine]
178 to 180	N[C@H](CC1CCCCC1)c1nc(-c2ccc(-c3ccccc3)cc2)c[nH]1 (as salt: hydrochloride) [Example 154]
218 to 220	CNCc1nc(-c2ccc(-c3ccccc3)cc2)c[nH]1 (as salt: hydrochloride) [Example 155, (4-[1,1′-biphenyl]-4-yl-1H-imidazol-2-yl)-N-methylmethanamine]
218 to 220	CNCc1nc(-c2ccccc2)c(C)[nH]1 (as salt: hydrochloride) [Example 158, N-methyl-(5-methyl-4-phenyl-1H-imidazol-2-yl)methanamine]
210 to 212	NCc1nc(-c2ccccc2)c(-c2ccccc2)[nH]1 (as salt: hydrochloride) [Example 160, (4,5-diphenyl-1H-imidazol-2-yl)methanamine]

melting point [°C]	Compound
228 to 230	NCCc1nc(-c2ccc(-c3ccccc3)cc2)c[nH]1 (as salt: hydrochloride) [Example 161, 2-(4-[1,1′-biphenyl]4-yl-1H-imidazol-2-yl)ethanamine]
198 to 200	CNCc1nc(-c2ccccc2)c(-c2ccccc2)[nH]1 (as salt: hydrochloride) [Example 162, (4,5-diphenyl-1H-imidazol-2-yl)-N-methylmethanamine]
215 to 218	N[C@H](CCc1ccccc1)c1nc(-c2ccc(-c3ccccc3)cc2)c[nH]1 (as salt: hydrochloride) [Example 166, (1R)-1-(4-[1,1′-biphenyl]-4-yl-1H-imidazol-2-yl)-3-phenyl-1-propanamine]
> 250	c1ccc(CNCc2nc(-c3ccc(-c4ccccc4)cc3)c[nH]2)cc1 (as salt: hydrochloride) [Example 168, N-benzyl(4-[1,1′-biphenyl]4-yl-1H-imidazol-2-yl)methanamine]
> 260	NCCCc1nc(-c2ccc(-c3ccccc3)cc2)c[nH]1 (as salt: hydrochloride) [Example 179, 3-(4-[1,1′-biphenyl]-4-yl-1H-imidazol-2-yl)-1-propanamine]
244 to 246	NCCCCCCc1nc(-c2ccccc2)c[nH]1 (as salt: hydrochloride) [Example 180, 6-(4-phenyl-1H-imidazol-2-yl)hexylamine]
> 250	CC[C@H](N)c1nc(-c2ccc(-c3ccccc3)cc2)c[nH]1 (as salt: hydrochloride) [Example 196, (1S)-1-(4-[1,1′-biphenyl]-4-yl-1H-imidazol-2-yl)-1-propanamine]
224 to 226	CC[C@H](N)c1nc(-c2ccccc2)c(-c2ccccc2)[nH]1 (as salt: hydrochloride) [Example 199, (1S)-1-(4,5-diphenyl-1H-imidazol-2-yl)-1-propanamine]
155.4	CCC[C@@H](N)c1nc(-c2ccc(-c3ccccc3)cc2)c[nH]1 (as salt: hydrochloride) [Example 209, (1R)-1-(4-[1,1′-biphenyl]-4-yl-1H-imidazol-2-yl)-1-butanamine]
182 to 184	CCC[C@@H](N)c1nc(-c2ccccc2)c[nH]1 (as salt: hydrochloride) [Example 211, (1R)-1-(4-phenyl-1H-imidazol-2-yl)-1-butanamine]
178 to 181	C[C@@H](N)c1nc(-c2ccccc2)c[nH]1 (as salt: hydrochloride) [Example 219, (1R)-1-(4-phenyl-1H-imidazol-2-yl)ethanamine]
222 to 223	N[C@H](c1nc(-c2ccc(F)c(F)c2)c[nH]1)C1CCCCC1 (as salt: hydrochloride) [Example 258, (S)-cyclohexyl[4-(3,4-difluorophenyl)-1H-imidazol-2-yl]-methanamine]
225 to 227	COc1ccc(-c2c[nH]c([C@@H](N)C3CCCCC3)n2)cc1F (as salt: hydrochloride) [Example 259, (S)-cyclohexyl[4-(3-fluoro-4-methoxyphenyl)-1H-imidazol-2-yl]-methanamine]
> 250	Fc1ccc(-c2c[nH]c([C@@H](NC3CCCCC3)C3CCCCC3)n2)cc1 (as salt: hydrochloride) [Example 264, N-{(S)-cyclohexyl[4-(4-fluorophenyl)-1H-imidazol-2-yl]methyl}cyclohexanamine]
180 to 182	c1ccc(-c2c[nH]c([C@@H](NCC3CCCCC3)C3CCCCC3)n2)cc1 (as salt: hydrochloride) [Example 265, (S)-cyclohexyl-N-(cyclohexylmethyl)(4-phenyl-1H-imidazol-2-yl)methanamine]
151 to 152	c1ccc(-c2c[nH]c([C@@H](NCC3CC3)C3CCCCC3)n2)cc1 (as salt: hydrochloride) [Example 267, (S)-cyclohexyl-N-(cyclopropylmethyl)(4-phenyl-1H-imidazol-2-yl)methanamine]
221.4	Fc1ccc(-c2c[nH]c([C@@H](NCC3CC3)C3CCCCC3)n2)cc1 (as salt: hydrochloride) [Example 273, (S)-cyclohexyl-N-(cyclopropylmethyl)[4-(4-fluorophenyl)-1H-imidazol-2-yl]-methanamine]
190 to 192	c1cc(C2CCCCC2)ccc1-c1c[nH]c([C@@H](NC2CCC2)C2CCCCC2)n1 (as salt: hydrochloride) [Example 275, N-{(S)-cyclohexyl[4-(4-cyclohexylphenyl)-1H-imidazol-2-yl]methyl}cyclobutanamine]
190 to 194	Cn1cc(-c2ccc(F)cc2)nc1[C@@H](NC1CCCCC1)C1CCCCC1 (as salt: hydrochloride) [Example 279, N-{(S)-cyclohexyl[4-(4-fluorophenyl)-1-methyl-1H-imidazol-2-yl]methyl}cyclohexanamine]
204 to 206	CCN(CC)c1ccc(-c2c[nH]c([C@@H](NCC3CCCCC3)C3CCCCC3)n2)cc1 (as salt: hydrochloride) [Example 290, 4-(2-{(S)-cyclohexyl[(cyclohexylmethyl)amino]methyl}-1H-imidazol-4-yl)-N,N-diethylaniline]
254.6	CC(C)(C)c1cc(-c2c[nH]c([C@@H](NCC3CCCCC3)C3CCCCC3)n2)cc(C(C)(C)C)c1O (as salt: hydrochloride) [Example 291, 2,6-ditert-butyl-4-(2-{(S)-cyclohexyl[(cyclohexylmethyl)amino]-methyl}-1H-imidazol-4-yl)phenol]
